# Assay results as given in patent US5049389A, “Novel liposome composition for the treatment of interstitial lung diseases” (priority 1989, dated 1991).
# Experiments:
# [1] = Thin layer chromatographic assay of lung samples for BDP metabolism; type: in vivo, rat; conditions: thin layer chromatography
# [2] = Partition between octanol and phosphate buffer saline; type: physicochemical; conditions: pH 7.4
# From the text: Nearly all (95%) of the BDP was associated with the octanol.
# [3] = rat, in vivo
# Protocol: The amount of drug in the lungs at time zero can be used to determine the amount of free drug in the formulation, since free drug is very rapidly absorbed from the lungs (Dose=free drug+amount in lungs at t=0). This amount also includes any liposome associated drug that was rapidly released ("burst" effect).
# The absorption kinetics (sustained release) was determined by measuring percentage of ^14 C BDP remaining in the lungs following the intratracheal instillation of the above described five liposome formulations and one intravenous administration of free drug.
# All studies were performed in male Sprague-Dawley rats weighing 250 to 450 g. After fasting for 16 hours, animals were anesthetized by i.m. injection of ketamine (25 mg/kg), xylazine (5 mg/kg) and acepromazine (0.5 mg/ml). During the procedure the animal's body temperature was maintained with a 37° C. heating pad. Additional anesthetic was administered as required, using half the original dose. A midline incision was made in the neck and the right jugular vein and left carotid artery were cannulated with short lengths of polyethylene tubing to which a 23 ga Luer stub adapter (Clay Adams #7565) and plastic 3-way stopcock (Argyle #173518) were attached. Blood samples (0.5-4 ml) were removed from the carotid arterial cannula after first flushing with fresh blood to clear the line. Blood volume removed was replaced with an equal volume of 5% dextrose solution containing 50 U/ml of heparin via the jugular cannula. For intravenous (i.v.) injection studies, drug was injected into the venous cannula with a 500 ul glass syringe via a 22 ga needle and injection cap and flushed with 0.5 to 1.0 ml dextrose solution.
# For intratracheal (i.t.) instillation of BDP formulations, (Table V) the trachea was cannulated with a 4 cm long section of Teflon tubing (1.2 mm I.D.), inserted at the level of the fifth tracheal ring below the thyroid cartilage and tied in place with a suture. Excess fluid in the trachea was aspirated through tubing attached to a syringe. […]
# [4] = system: chronic relapsing Stage II and III pulmonary sarcoidosis; conditions: 1200 or 2400 ug daily inhaled via Nebuhaler; cited from earlier work
compound,measurement,setting,value
"CCC(=O)OCC(=O)[C@@]1(OC(=O)CC)[C@@H](C)C[C@H]2[C@@H]3CCC4=CC(=O)C=C[C@]4(C)[C@@]3(Cl)[C@@H](O)C[C@@]21C [Beclomethasone dipropionate, beclomethasone dipropionate]",metabolism of BDP prior to leaving the lungs,[1],no detectable metabolism of BDP prior to leaving the lungs
same,BDP associated with the octanol,[2],95%
same,drug absorbed before the first time point,[3],over 98%
same,"apparent half-life in lungs (elimination of released radiolabel, not absorption)",[3]; 0.008 mg/kg,3.0 h
same,^14 C BDP removed from the lungs (absorbed),[3]; 0.5 h,99.7%
CCCC1O[C@@H]2C[C@H]3[C@@H]4CCC5=CC(=O)C=C[C@]5(C)[C@H]4[C@@H](O)C[C@]3(C)[C@]2(C(=O)CO)O1 (stereo partly drawn) [budesonide],improvement in pulmonary sarcoidosis,[4],showed improvement in chronic relapsing Stage II and III pulmonary sarcoidosis
